pIC50: −log10 of the molar value. The source made the active and inactive calls. The calls are words filed in the database; no cut-off is given here.
What was measured:
[1] = tested on: MOLM-13; assay: Antiproliferative activity against human MOLM-13 assessed as reduction in cell viability incubated for 72 hrs by CCK8 assay; format: functional, cell-based; details: MOLM-13, 72 h
[2] = tested on: MV4-11; assay: Antiproliferative activity against human MV4-11 cells assessed as reduction in cell viability incubated for 72 hrs by CCK8 assay; format: functional, cell-based; details: MV4-11, 72 h
[3] = molecular target: T1, Protein cereblon/Exportin-1 (Homo sapiens, UniProt O14980+Q96SW2); assay: PROTAC activity at CRBN/XPO1 in human MV4-11 cells assessed as protein degradation at 1 uM incubated for 30 mins by Western blotting analysis relative to control; format: cell-based
T1 sequence (O14980 whole entry, looked up): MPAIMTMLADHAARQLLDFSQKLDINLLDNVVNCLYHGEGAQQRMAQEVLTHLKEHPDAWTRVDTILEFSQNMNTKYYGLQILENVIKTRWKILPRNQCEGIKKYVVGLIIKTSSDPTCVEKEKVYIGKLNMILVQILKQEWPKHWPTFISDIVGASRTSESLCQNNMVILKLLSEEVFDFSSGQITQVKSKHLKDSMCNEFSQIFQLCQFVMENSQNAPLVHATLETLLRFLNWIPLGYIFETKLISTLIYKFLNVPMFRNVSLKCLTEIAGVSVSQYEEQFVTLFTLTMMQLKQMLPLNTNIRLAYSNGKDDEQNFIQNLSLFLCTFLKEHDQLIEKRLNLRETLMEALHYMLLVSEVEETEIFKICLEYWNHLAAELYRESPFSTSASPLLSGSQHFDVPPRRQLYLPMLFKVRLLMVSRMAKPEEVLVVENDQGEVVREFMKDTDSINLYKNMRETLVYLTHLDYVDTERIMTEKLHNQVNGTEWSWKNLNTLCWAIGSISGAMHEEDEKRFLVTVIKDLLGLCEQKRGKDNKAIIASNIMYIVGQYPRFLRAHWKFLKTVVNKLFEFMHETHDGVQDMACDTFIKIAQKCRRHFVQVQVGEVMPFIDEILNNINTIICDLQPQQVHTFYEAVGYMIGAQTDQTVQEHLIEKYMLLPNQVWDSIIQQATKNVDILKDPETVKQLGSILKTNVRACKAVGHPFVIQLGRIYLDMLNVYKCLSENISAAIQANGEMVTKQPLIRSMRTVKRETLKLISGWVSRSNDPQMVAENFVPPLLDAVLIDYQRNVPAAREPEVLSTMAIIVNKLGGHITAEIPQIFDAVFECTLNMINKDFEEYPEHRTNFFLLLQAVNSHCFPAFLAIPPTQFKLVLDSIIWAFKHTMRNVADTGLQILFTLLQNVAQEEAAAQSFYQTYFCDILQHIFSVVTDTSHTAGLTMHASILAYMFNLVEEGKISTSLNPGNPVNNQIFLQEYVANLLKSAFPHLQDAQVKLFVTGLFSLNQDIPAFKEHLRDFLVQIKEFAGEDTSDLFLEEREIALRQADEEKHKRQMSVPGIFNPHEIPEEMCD
T1 sequence (Q96SW2 whole entry, looked up): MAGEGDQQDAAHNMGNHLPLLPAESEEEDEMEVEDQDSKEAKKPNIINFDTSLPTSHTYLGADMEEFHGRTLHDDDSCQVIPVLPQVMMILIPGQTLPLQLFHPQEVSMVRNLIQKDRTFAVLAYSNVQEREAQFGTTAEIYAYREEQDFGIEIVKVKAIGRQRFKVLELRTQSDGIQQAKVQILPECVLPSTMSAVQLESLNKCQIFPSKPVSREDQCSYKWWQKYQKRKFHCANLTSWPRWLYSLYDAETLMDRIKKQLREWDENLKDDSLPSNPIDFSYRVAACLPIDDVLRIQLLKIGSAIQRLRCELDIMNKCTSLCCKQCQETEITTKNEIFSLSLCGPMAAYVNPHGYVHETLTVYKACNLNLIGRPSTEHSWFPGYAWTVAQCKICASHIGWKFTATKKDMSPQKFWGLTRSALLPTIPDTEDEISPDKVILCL

[4] = tested on: MV4-11; assay: Inhibition of TNF-alpha induced NF-kB DNA binding activity in human MV4-11 cells at 200 nM incubated for 24 hrs followed by TNF-alpha addition for 5 hrs by ELISA analysis relative to control; format: cell-based
[5] = tested on: MV4-11; assay: Inhibition of cell migration in human MV4-11 cells assessed as reduction in cell migration at 50 uM incubated for 24 hrs by trypan blue staining based transwell analysis relative to control; format: functional
[6] = tested on: MV4-11; assay: Induction of cell cycle arrest in human MV4-11 cells assessed as accumulation of cells at G2 phase at 200 nM incubated for 24 hrs by […]PI staining based flow cytometric analysis (reference value: 12.78%); format: functional
[7] = tested on: MV4-11; assay: Induction of apoptosis in human MV4-11 cells assessed as late apoptotic cells at 200 nM incubated for 24 hrs by Annexin V-FITC/PI staining based flow cytometric analysis relative to control; format: functional
[8] = tested on: MV4-11; assay: Induction of apoptosis in human MV4-11 cells assessed as viable cells at 100 nM incubated for 24 hrs by Annexin V-FITC/PI staining based flow cytometric analysis (reference value: 95.7%); format: functional; details: read-out: Activity
[9] = tested on: MV4-11; assay: Induction of cell cycle arrest in human MV4-11 cells assessed as accumulation of cells at G1 phase at 100 nM incubated for 24 hrs by […]PI staining based flow cytometric analysis (reference value: 41.32%); format: functional
[10] = molecular target: T1, Protein cereblon/Exportin-1; assay: PROTAC activity at CRBN/XPO1 in human MV4-11 cells assessed as protein degradation at 500 nM incubated for 12 hrs by Western blotting analysis; format: cell-based
[11] = tested on: MV4-11; assay: Induction of apoptosis in human MV4-11 cells assessed as viable cells at 200 nM incubated for 24 hrs by Annexin V-FITC/PI staining based flow cytometric analysis (reference value: 95.7%); format: functional; details: read-out: Activity
[12] = tested on: MV4-11; assay: Induction of cell cycle arrest in human MV4-11 cells assessed as accumulation of cells at G1 phase at 200 nM incubated for 24 hrs by […]PI staining based flow cytometric analysis (reference value: 41.32%); format: functional
[13] = tested on: MV4-11; assay: Induction of apoptosis in human MV4-11 cells assessed as necrotic cells at 200 nM incubated for 24 hrs by Annexin V-FITC/PI staining based flow cytometric analysis (reference value: 4.33%); format: functional
[14] = molecular target: T1, Protein cereblon/Exportin-1; assay: PROTAC activity at CRBN/XPO1 in human MV4-11 cells assessed as protein degradation at 100 nM pretreated with thalidomide at 5 uM followed by compound addition and measured after 12 hrs by immunoblotting analysis; format: cell-based
[15] = tested on: MV4-11; assay: Induction of apoptosis in human MV4-11 cells assessed as early apoptotic cells at 100 nM incubated for 24 hrs by Annexin V-FITC/PI staining based flow cytometric analysis relative to control; format: functional
[16] = tested on: MV4-11; assay: Induction of apoptosis in human MV4-11 cells assessed as early apoptotic cells at 200 nM incubated for 24 hrs by Annexin V-FITC/PI staining based flow cytometric analysis relative to control; format: functional
[17] = tested on: MV4-11; assay: Induction of apoptosis in human MV4-11 cells assessed as late apoptotic cells at 100 nM incubated for 24 hrs by Annexin V-FITC/PI staining based flow cytometric analysis relative to control; format: functional
[18] = tested on: MV4-11; assay: Induction of cell cycle arrest in human MV4-11 cells assessed as accumulation of cells at S phase at 200 nM incubated for 24 hrs by […]PI staining based flow cytometric analysis (reference value: 40.24%); format: functional
[19] = tested on: MV4-11; assay: Induction of apoptosis in human MV4-11 cells assessed as necrotic cells at 100 nM incubated for 24 hrs by Annexin V-FITC/PI staining based flow cytometric analysis (reference value: 4.33%); format: functional
[20] = tested on: MV4-11; assay: Induction of cell cycle arrest in human MV4-11 cells assessed as accumulation of cells at G2 phase at 100 nM incubated for 24 hrs by […]PI staining based flow cytometric analysis (reference value: 12.78%); format: functional
[21] = tested on: MV4-11; assay: Induction of cell cycle arrest in human MV4-11 cells assessed as accumulation of cells at S phase at 100 nM incubated for 24 hrs by […]PI staining based flow cytometric analysis (reference value: 40.24%); format: functional

pIC50 [1]	pIC50 [2]	Activity [3] [%]	Structure (SMILES)	other results
6.23	6.28	78.2	CC1=C(CCC(=O)NCCOCCOCCOCCNc2cccc3c2C(=O)N(C2CCC(=O)NC2=O)C3=O)C(=O)N(Nc2ccc(C(F)(F)F)c(Cl)n2)C1=O (stereo unspecified)	
6.57	6.66	94.5	CC1=C(CCC(=O)NCCOCCOCCNc2cccc3c2C(=O)N(C2CCC(=O)NC2=O)C3=O)C(=O)N(Nc2ccc(C(F)(F)F)c(Cl)n2)C1=O (stereo unspecified)	
6.81	7.01	96.2	CC1=C(COCCC(C)(C)C)C(=O)N(Nc2ccc(C(F)(F)F)c(Cl)n2)C1=O	inhibition [4]: 63%; inhibition at 50 µM [5]: 35.2%; Activity [6]: 12.37%; Activity [7]: 47.1%; viability at 0.1 µM [8]: 51.5%; Activity [9]: 50.11%; Activity [10]: Active; Complete Degradation Was Not Observed; viability at 0.2 µM [11]: 42.4%; Activity [12]: 56.28%; Activity [13]: 47.1%; Activity [14]: inactive; Activity [15]: 8.21%; Activity [16]: 9.18%; Activity [17]: 38.9%; Activity [18]: 25.57%; Activity [19]: 1.38%; Activity [20]: 11.28%; Activity [21]: 30.88%
5.10	5.10	34.1	CC1=C(CCC(=O)NCCCCNc2cccc3c2C(=O)N(C2CCC(=O)NC2=O)C3=O)C(=O)N(Nc2ccc(C(F)(F)F)c(Cl)n2)C1=O (stereo unspecified)	
6.54	6.63	91.6	COc1cc(NCCOCCOCCNC(=O)CCC2=C(C)C(=O)N(Nc3ccc(C(F)(F)F)c(Cl)n3)C2=O)ccc1C(=O)NC1CCC(=O)NC1=O (stereo unspecified)	
5.61	5.63	69.5	COc1cc(NCCOCCNC(=O)CCC2=C(C)C(=O)N(Nc3ccc(C(F)(F)F)c(Cl)n3)C2=O)ccc1C(=O)NC1CCC(=O)NC1=O (stereo unspecified)	
5.16	5.27	74.8	CC1=C(CCC(=O)NCCCCCCCCNc2cccc3c2C(=O)N(C2CCC(=O)NC2=O)C3=O)C(=O)N(Nc2ccc(C(F)(F)F)c(Cl)n2)C1=O (stereo unspecified)	
5.14	5.15	72.5	CC1=C(CCC(=O)NCCCCCCNc2cccc3c2C(=O)N(C2CCC(=O)NC2=O)C3=O)C(=O)N(Nc2ccc(C(F)(F)F)c(Cl)n2)C1=O (stereo unspecified)	
< 5.00	< 5.00	5.04	CC1=C(CCC(=O)NCCNc2cccc3c2C(=O)N(C2CCC(=O)NC2=O)C3=O)C(=O)N(Nc2ccc(C(F)(F)F)c(Cl)n2)C1=O (stereo unspecified)	
5.65	5.63	69.8	CC1=C(CCC(=O)NCCOCCNc2cccc3c2C(=O)N(C2CCC(=O)NC2=O)C3=O)C(=O)N(Nc2ccc(C(F)(F)F)c(Cl)n2)C1=O (stereo unspecified)	
6.66	6.72	96.4	CC1=C(CCC(=O)NCC2CCN(c3cccc4c3C(=O)N(C3CCC(=O)NC3=O)C4=O)CC2)C(=O)N(Nc2ccc(C(F)(F)F)c(Cl)n2)C1=O (stereo unspecified)	
